In PubChem BioAssay AID248 (DTP/NCI, 2004):
Values joined by “and” are separate entries in the source; they are usually repeats but may differ in a detail not shown here. Equal values may be shown once. Toxic doses and inconclusive results are not listed. Rule as the data show it: active = T/C of 150% or more; inactive = T/C below 125%.

Tested on: L1210 leukemia ip in BDF1 mice, survival T/C
Assay: NCI In Vivo Anticancer Drug Screen. Data for tumor model L1210 Leukemia (intraperitoneal) in B6D2F1 (BDF1) mice
Settings: endpoint: mean survival time, higher = longer survival
Outline: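 Read-out is survival time, reported as the treated-group measurement over the vehicle-control measurement.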

[1] = dose: 100.0 mg/kg/injection, schedule: Q01DX009 (ip), vehicle: saline with Tween-80
[2] = dose: 200.0 mg/kg/injection, schedule: Q01DX009 (ip), vehicle: saline with Tween-80
[3] = dose: 400.0 mg/kg/injection, schedule: Q01DX009 (ip), vehicle: saline with Tween-80
[4] = dose: 75.0 mg/kg/injection, schedule: Q04DX003 (ip), vehicle: Klucel (hydroxypropylcellulose) (HPC)
[5] = dose: 150.0 mg/kg/injection, schedule: Q04DX003 (ip), vehicle: Klucel (hydroxypropylcellulose) (HPC)
[6] = dose: 300.0 mg/kg/injection, schedule: Q04DX003 (ip), vehicle: Klucel (hydroxypropylcellulose) (HPC)
[7] = dose: 100.0 mg/kg/injection, schedule: Q01DX001 (ip), vehicle: Klucel (hydroxypropylcellulose) (HPC)
[8] = dose: 100.0 mg/kg/injection, schedule: Q01DX001 (ip), vehicle: saline
[9] = dose: 200.0 mg/kg/injection, schedule: Q01DX001 (ip), vehicle: Klucel (hydroxypropylcellulose) (HPC)
[10] = dose: 200.0 mg/kg/injection, schedule: Q01DX001 (ip), vehicle: saline
[11] = dose: 400.0 mg/kg/injection, schedule: Q01DX001 (ip), vehicle: Klucel (hydroxypropylcellulose) (HPC)
[12] = dose: 100.0 mg/kg/injection, schedule: Q01DX009 (ip), vehicle: Klucel (hydroxypropylcellulose) (HPC)
[13] = dose: 100.0 mg/kg/injection, schedule: Q04DX003 (ip), vehicle: Klucel (hydroxypropylcellulose) (HPC)
[14] = dose: 200.0 mg/kg/injection, schedule: Q01DX009 (ip), vehicle: Klucel (hydroxypropylcellulose) (HPC)
[15] = dose: 200.0 mg/kg/injection, schedule: Q04DX003 (ip), vehicle: Klucel (hydroxypropylcellulose) (HPC)
[16] = dose: 400.0 mg/kg/injection, schedule: Q04DX003 (ip), vehicle: Klucel (hydroxypropylcellulose) (HPC)
[17] = dose: 400.0 mg/kg/injection, schedule: Q01DX001 (ip), vehicle: saline
[18] = dose: 100.0 mg/kg/injection, schedule: Q04DX002 (ip), vehicle: Klucel (hydroxypropylcellulose) (HPC)
[19] = dose: 200.0 mg/kg/injection, schedule: Q04DX002 (ip), vehicle: Klucel (hydroxypropylcellulose) (HPC)
[20] = dose: 400.0 mg/kg/injection, schedule: Q04DX002 (ip), vehicle: Klucel (hydroxypropylcellulose) (HPC)
[21] = dose: 100.0 mg/kg/injection, schedule: Q04DX003 (ip), vehicle: saline
[22] = dose: 200.0 mg/kg/injection, schedule: Q04DX003 (ip), vehicle: saline
[23] = dose: 400.0 mg/kg/injection, schedule: Q04DX003 (ip), vehicle: saline
[24] = dose: 100.0 mg/kg/injection, schedule: Q01DX001 (ip), vehicle: saline with Tween-80
[25] = dose: 200.0 mg/kg/injection, schedule: Q01DX001 (ip), vehicle: saline with Tween-80
[26] = dose: 400.0 mg/kg/injection, schedule: Q01DX001 (ip), vehicle: saline with Tween-80
[27] = dose: 100.0 mg/kg/injection, schedule: Q04DX003 (ip), vehicle: saline with Tween-80
[28] = dose: 200.0 mg/kg/injection, schedule: Q04DX003 (ip), vehicle: saline with Tween-80
[29] = dose: 400.0 mg/kg/injection, schedule: Q04DX003 (ip), vehicle: saline with Tween-80
[30] = dose: 75.0 mg/kg/injection, schedule: Q01DX001 (ip), vehicle: saline
[31] = dose: 150.0 mg/kg/injection, schedule: Q01DX001 (ip), vehicle: saline
[32] = dose: 300.0 mg/kg/injection, schedule: Q01DX001 (ip), vehicle: saline

Measured: T/C

CC(=O)OCC1OC(OC(C)C)[CH]([Hg][S]Cc2ccccc2)C(OC(C)=O)C1OC(C)=O (stereo unspecified)
inactive: dose: 0.5 mg/kg/injection, schedule: Q01DX015 (ip), vehicle: carboxymethylcellulose (CMC) 102 % of control | dose: 1.0 mg/kg/injection, schedule: Q01DX015 (ip), vehicle: carboxymethylcellulose (CMC) 98 % of control | dose: 2.0 mg/kg/injection, schedule: Q01DX015 (ip), vehicle: carboxymethylcellulose (CMC) 104 % of control | dose: 4.0 mg/kg/injection, schedule: Q01DX015 (ip), vehicle: carboxymethylcellulose (CMC) 96 % of control and 108 % of control | dose: 8.0 mg/kg/injection, schedule: Q01DX015 (ip), vehicle: carboxymethylcellulose (CMC) 88 % of control

CC(Br)C(=O)NC(C)C(=O)O (stereo unspecified)
inactive: [1] 89 % of control | [2] 86 % of control | [3] 91 % of control

O=C(CCC(=O)[O][Sn]([c]1ccccc1)([c]1ccccc1)[c]1ccccc1)[O][Sn]([c]1ccccc1)([c]1ccccc1)[c]1ccccc1
inactive: dose: 1.56 mg/kg/injection, schedule: Q01DX009 (ip), vehicle: saline with Tween-80 93 % of control | dose: 3.12 mg/kg/injection, schedule: Q01DX009 (ip), vehicle: saline with Tween-80 90 % of control | dose: 6.25 mg/kg/injection, schedule: Q04DX003 (ip), vehicle: saline with Tween-80 95 % of control | dose: 12.5 mg/kg/injection, schedule: Q01DX001 (ip), vehicle: saline 104 % of control | dose: 25.0 mg/kg/injection, schedule: Q01DX001 (ip), vehicle: saline 91 % of control

O=S1(=O)C(c2ccccc2)CC1c1ccccc1 (stereo unspecified)
inactive: [4] 107 % of control | [5] 104 % of control | [6] 96 % of control

O=C(O)CSc1ccccc1C(=O)O
inactive: dose: 50.0 mg/kg/injection, schedule: Q01DX001 (ip), vehicle: saline 93 % of control | [4] 94 % of control | [7] 96 % of control | [8] 100 % of control | [5] 90 % of control | [9] 120 % of control | [10] 102 % of control | [6] 92 % of control | [11] 102 % of control

CCOP(=O)(NC12CC3CC(CC(C3)C1)C2)OCC
inactive: [12] 97 % of control | [13] 93 % of control | [14] 94 % of control | [15] 98 % of control | [16] 90 % of control

O=S1(=O)CCC(O)C1 (stereo unspecified)
inactive: [8] 92 % of control | dose: 100.0 mg/kg/injection, schedule: Q01DX009 (ip), vehicle: saline 93 % of control | [10] 97 % of control | dose: 200.0 mg/kg/injection, schedule: Q01DX009 (ip), vehicle: saline 105 % of control | [17] 100 % of control | dose: 400.0 mg/kg/injection, schedule: Q01DX009 (ip), vehicle: saline 100 % of control

CCOC(=O)c1ccc(N2C(=O)CC(Sc3ccccc3N)C2=O)cc1 (stereo unspecified)
inactive: dose: 100.0 mg/kg/injection, schedule: Q01DX005 (ip), vehicle: Klucel (hydroxypropylcellulose) (HPC) 97 % of control | [18] 103 % of control | dose: 200.0 mg/kg/injection, schedule: Q01DX005 (ip), vehicle: Klucel (hydroxypropylcellulose) (HPC) 102 % of control | [19] 103 % of control | dose: 400.0 mg/kg/injection, schedule: Q01DX005 (ip), vehicle: Klucel (hydroxypropylcellulose) (HPC) 91 % of control | [20] 113 % of control

Cn1ncc2c(N)nc(-c3ccccc3)nc21
inactive: dose: 100.0 mg/kg/injection, schedule: Q04DX003 (ip), vehicle: other 97 % of control

CC1CCCN(C(=O)/C=C/c2ccccc2)C1 (stereo unspecified)
inactive: dose: 50.0 mg/kg/injection, schedule: Q04DX002 (ip), vehicle: saline 104 % of control | [18] 91 % of control | dose: 100.0 mg/kg/injection, schedule: Q04DX002 (ip), vehicle: saline 93 % of control | [19] 95 % of control | dose: 200.0 mg/kg/injection, schedule: Q04DX002 (ip), vehicle: saline 97 % of control | [20] 95 % of control

O=S(CCO)CCS(=O)CCO (stereo unspecified)
inactive: dose: 75.0 mg/kg/injection, schedule: Q01DX009 (ip), vehicle: saline 95 % of control | [21] 106 % of control | dose: 150.0 mg/kg/injection, schedule: Q01DX009 (ip), vehicle: saline 101 % of control | [22] 110 % of control | dose: 300.0 mg/kg/injection, schedule: Q01DX009 (ip), vehicle: saline 97 % of control | [23] 100 % of control

CCCCCCC(C)C1CCCCC1 (stereo unspecified)
inactive: [24] 96 % of control | [25] 93 % of control | [26] 93 % of control

O=[N+]([O-])c1ccc2ncsc2c1
inactive: [1] 98 % of control | [27] 112 % of control | [2] 98 % of control | [28] 102 % of control | [3] 98 % of control | [29] 104 % of control

CN1CN(c2ccccc2)C2(CCN(c3nc4ccccc4s3)CC2)C1=O
inactive: [7] 91 % of control | [9] 94 % of control | [11] 96 % of control

COc1ccc(C)cc1NC(=S)NC(=O)c1cc([N+](=O)[O-])cc([N+](=O)[O-])c1
inactive: [12] 97 % of control | [13] 95 % of control | [14] 90 % of control | [15] 100 % of control | dose: 400.0 mg/kg/injection, schedule: Q01DX009 (ip), vehicle: Klucel (hydroxypropylcellulose) (HPC) 95 % of control | [16] 97 % of control

CN1C2CCCCC1C1CCCCC2N1C
inactive: [30] 105 % of control | [31] 94 % of control | [32] 98 % of control

NCc1c[nH]c2ccccc12
inactive: dose: 44.0 mg/kg/injection, schedule: Q01DX Z (ip), vehicle: water 107 % of control | dose: 66.0 mg/kg/injection, schedule: Q01DX Z (ip), vehicle: water 105 % of control | [8] 95 % of control | dose: 100.0 mg/kg/injection, schedule: Q01DX Z (ip), vehicle: water 105 % of control | [21] 98 % of control | dose: 150.0 mg/kg/injection, schedule: Q01DX Z (ip), vehicle: water 105 % of control | [10] 92 % of control | [22] 95 % of control | [17] 89 % of control | [23] 88 % of control

CCCCCCCCCCCCCCOc1ccc(C(=S)N2CCOCC2)cc1OC
inactive: [13] 100 % of control | [15] 100 % of control | [16] 94 % of control

Cc1ccc(Cl)cc1NC(=O)N1CCCCC1C (stereo unspecified)
inactive: dose: 50.0 mg/kg/injection, schedule: Q04DX002 (ip), vehicle: saline with Tween-80 106 % of control and 92 % of control | [24] 109 % of control | [1] 95 % of control and 96 % of control | [27] 97 % of control | [25] 103 % of control | [2] 94 % of control and 100 % of control | [28] 103 % of control | [26] 104 % of control | [29] 95 % of control

COc1cc(C(=O)NC(=S)NCc2ccncc2)cc(OC)c1OC
inactive: [18] 96 % of control | [19] 88 % of control

CCOC(=O)c1ccc(N2C(=O)c3cccc4cccc(c34)C2=O)c([N+](=O)[O-])c1
inactive: [27] 97 % of control | [28] 93 % of control | [29] 95 % of control

CNC(=O)N/N=C(C)\C=N\NC(=O)NC
inactive: [30] 97 % of control | [31] 108 % of control | [32] 92 % of control
